Assay results: the NIST ThermoML archive (doi:10.1016/j.tca.2012.01.007)

What was measured:
[1] = 101 kPa, Liquid, Vibrating tube method
[2] = wn = mass fraction of the nth substance listed; settings: 101 kPa, Liquid, Vibrating tube method

O [water]
[1]
Settings | mass density [kg/m3]
283.15 K | 999.964
293.15 K | 998.557
303.15 K | 995.999
313.15 K | 992.57
323.15 K | 988.391
333.15 K | 983.453
343.14 K | 977.483
353.14 K | 972.2

O [water] + OCCNCCO
[2], w2 = 0
Settings | mass density [kg/m3]
283.15 K | 999.964
293.15 K | 998.557
303.15 K | 995.999
313.15 K | 992.57
323.15 K | 988.391
333.15 K | 983.453
343.14 K | 977.483
353.14 K | 972.2

CO [methanol] + OCCNCCO
[2], w2 = 0
Settings | mass density [kg/m3]
283.15 K | 801.436
293.15 K | 792.069
303.15 K | 782.606
313.15 K | 773.049
323.15 K | 763.363
333.15 K | 753.506

OCCNCCO [diethanolamine]
[1]
Settings | mass density [kg/m3]
278.14 K | 1107.05
283.14 K | 1103.88
293.15 K | 1097.51
303.14 K | 1091.06
313.14 K | 1084.49
323.14 K | 1077.78
333.14 K | 1071
343.14 K | 1064.14
348.14 K | 1060.68
353.15 K | 1056.83

CCO [ethanol] + OCCNCCO
[2], w2 = 0
Settings | mass density [kg/m3]
278.15 K | 802.686
283.15 K | 798.458
293.14 K | 789.938
303.14 K | 781.332
313.16 K | 772.577
323.14 K | 763.677
333.14 K | 754.521
343.15 K | 745.054
348.14 K | 740.206

OCCNCCO [diethanolamine] + CO
[2]
Settings | mass density [kg/m3]
283.14 K, w1 = 0.5999 | 976.523
283.15 K, w1 = 0.1 | 827.828
283.15 K, w1 = 0.2 | 855.383
283.15 K, w1 = 0.3 | 883.986
283.15 K, w1 = 0.3999 | 913.669
283.15 K, w1 = 0.5002 | 945.053
283.15 K, w1 = 0.8001 | 1038.06
283.15 K, w1 = 0.831 | 1047.98
283.15 K, w1 = 0.9004 | 1070.41
283.15 K, w1 = 0.9209 | 1077.24
283.16 K, w1 = 0.6997 | 1006.57
293.14 K, w1 = 0.1 | 818.746
293.14 K, w1 = 0.9209 | 1070.68
293.15 K, w1 = 0.2 | 846.577
293.15 K, w1 = 0.3 | 875.502
293.15 K, w1 = 0.3999 | 905.478
293.15 K, w1 = 0.5002 | 937.232
293.15 K, w1 = 0.5999 | 969.048
293.15 K, w1 = 0.6997 | 999.095
293.15 K, w1 = 0.8001 | 1030.93
293.15 K, w1 = 0.9004 | 1063.79
293.16 K, w1 = 0.831 | 1040.93
303.14 K, w1 = 0.1 | 809.6
303.14 K, w1 = 0.5999 | 961.458
303.15 K, w1 = 0.2 | 837.727
303.15 K, w1 = 0.3 | 866.962
303.15 K, w1 = 0.3999 | 897.232
303.15 K, w1 = 0.5002 | 929.334
303.15 K, w1 = 0.6997 | 991.41
303.15 K, w1 = 0.8001 | 1023.79
303.15 K, w1 = 0.831 | 1033.88
303.15 K, w1 = 0.9004 | 1057.05
303.15 K, w1 = 0.9209 | 1064.03
313.14 K, w1 = 0.1 | 800.368
313.15 K, w1 = 0.2 | 828.795
313.15 K, w1 = 0.3 | 858.34
313.15 K, w1 = 0.3999 | 888.909
313.15 K, w1 = 0.5002 | 921.353
313.15 K, w1 = 0.5999 | 953.776
313.15 K, w1 = 0.6997 | 983.97
313.15 K, w1 = 0.8001 | 1016.6
313.15 K, w1 = 0.831 | 1026.78
313.15 K, w1 = 0.9004 | 1050.22
313.15 K, w1 = 0.9209 | 1057.29
323.14 K, w1 = 0.1 | 791.018
323.15 K, w1 = 0.2 | 819.75
323.15 K, w1 = 0.3 | 849.609
323.15 K, w1 = 0.3999 | 880.486
323.15 K, w1 = 0.5002 | 913.261
323.15 K, w1 = 0.5999 | 945.981
323.15 K, w1 = 0.6997 | 976.456
323.15 K, w1 = 0.8001 | 1009.28
323.15 K, w1 = 0.831 | 1019.63
323.15 K, w1 = 0.9004 | 1043.29
323.15 K, w1 = 0.9209 | 1050.47
333.14 K, w1 = 0.1 | 781.504
333.14 K, w1 = 0.5999 | 938.046
333.14 K, w1 = 0.9209 | 1043.49
333.15 K, w1 = 0.2 | 810.556
333.15 K, w1 = 0.3 | 840.739
333.15 K, w1 = 0.3999 | 871.934
333.15 K, w1 = 0.5002 | 905.025
333.15 K, w1 = 0.6997 | 968.833
333.15 K, w1 = 0.8001 | 1002.21
333.15 K, w1 = 0.831 | 1012.39
333.15 K, w1 = 0.9004 | 1036.23

CCO [ethanol]
[1]
Settings | mass density [kg/m3]
278.15 K | 802.686
283.15 K | 798.458
293.14 K | 789.938
303.14 K | 781.332
313.16 K | 772.577
323.14 K | 763.677
333.14 K | 754.521
343.15 K | 745.054
348.14 K | 740.206

CO [methanol]
[1]
Settings | mass density [kg/m3]
283.15 K | 801.436
293.15 K | 792.069
303.15 K | 782.606
313.15 K | 773.049
323.15 K | 763.363
333.15 K | 753.506
